Data published in patent US20250042916A1 (ACONCAGUA BIO, INC., priority 2023, published 2025).

Target: human calcitonin receptor (CTR) and RAMP3 (AMY3) in COS-7 cells (Homo sapiens, UniProt O60896+P30988)
Test: Amylin Receptor cAMP Assay I
Assay type: cell-based
Settings: values marked *: Amylin Receptor cAMP Assay I; COS-7/AMY3 cells; read-out: Amylin Receptor cAMP Stimulation Activity: EC50
Description: Amylin Receptor cAMP Assay I
AMYRs are heterodimers of the class B calcitonin (CT) G-protein-coupled receptor (CTR) and receptor activity-modifying proteins (RAMPs). All three RAMPs can interact with the CTR and form AMY1, AMY2, AMY3 with RAMP1, RAMP2 and RAMP3, respectively. Like other class B1 GPCRs, the CT receptor family is canonically coupled to Gs-mediated cAMP production, and measurement of cAMP accumulation has been the primary assay used to determine peptide selectivity and potency.
To optimize functional activity directed toward Gas coupling, COS-7 cells were stably transfected with human calcitonin receptor (CTR) and RAMP3, simultaneously. 100× concentration of compound working solutions were prepared (Agilent Technologies Bravo) with 4-fold serial dilution in 384-well Echo LDV plate (Labcyte, Cat #LP-0200). 100 nL/well 100× concentration of compound working solutions were moved to 384-well white low volume plate (Greiner, Cat #784075) using Labcyte ECHO550. 1×10^5 cells/mL COS-7/CTR or COS-7/AMY3 (HD Biosciences) cell suspensions prepared with assay buffer [DPBS containing 0.5 mM IBMX (Sigma, Cat #15879) and 0.1% BSA (GENVIEW, Cat #FA016-100 g)], 10 μL cell suspensions were added to each well of previous generated assay plate which already contains 100 nL compound at 100× concentration using ThermoFisher Multidrop Combi (1000 cells/well). Seal the plate and incubate at 37° C. with 5% CO2 for 30 min.
After incubation, the cAMP assay signal was generated using cAMP Hi-range Kit (Cisbio). 5 μL cAMP-d2 working solution was added to each well, followed by 5 μL Anti-cAMP antibody-cryptate working solution which was added to each well using ThermoFisher Multidrop Combi. The samples were then incubated at room temperature for 1 hour protected from light. the fluorescence was read at 665 and 615 nm with Reader PerkinElmer EnVision.

human calcitonin receptor (CTR) and RAMP3 (AMY3) in COS-7 cells, sequence (P30988 25-474): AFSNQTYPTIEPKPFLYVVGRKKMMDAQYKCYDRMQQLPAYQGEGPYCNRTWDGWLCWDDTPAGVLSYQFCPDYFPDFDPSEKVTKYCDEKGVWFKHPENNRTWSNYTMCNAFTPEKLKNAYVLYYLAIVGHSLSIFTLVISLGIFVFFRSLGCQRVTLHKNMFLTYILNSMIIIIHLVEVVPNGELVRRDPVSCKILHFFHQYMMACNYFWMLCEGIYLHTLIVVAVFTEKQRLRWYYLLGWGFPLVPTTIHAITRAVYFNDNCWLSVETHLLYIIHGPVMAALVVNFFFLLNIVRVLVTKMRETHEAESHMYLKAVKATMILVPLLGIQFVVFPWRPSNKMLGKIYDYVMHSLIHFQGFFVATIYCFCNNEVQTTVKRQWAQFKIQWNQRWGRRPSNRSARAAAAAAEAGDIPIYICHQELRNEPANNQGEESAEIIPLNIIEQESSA
human calcitonin receptor (CTR) and RAMP3 (AMY3) in COS-7 cells, sequence (O60896 24-148): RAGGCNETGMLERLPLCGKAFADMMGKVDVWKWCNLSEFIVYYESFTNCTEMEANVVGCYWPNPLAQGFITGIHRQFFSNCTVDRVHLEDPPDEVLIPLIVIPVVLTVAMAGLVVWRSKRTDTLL

| Structure (SMILES) | EC50 [nM] |
| --- | --- |
| Cc1noc(-c2c(CCc3ccc(F)cc3)nc(CC(C)C)c(C(N)=O)c2-c2ccc(C(=O)N[C@@H]3CCc4ccccc43)s2)n1 [Compound 101, N—[(R)-1-indanyl]-5-{5-carbamoyl-2-[2-(p-fluorophenyl)ethyl]-6-isobutyl-3-(3-methyl-1,2,4-oxadiazol-5-yl)-4-pyridyl}-2-thenamide] | 84.7 |
| Cc1noc(-c2c(CCc3ccc(F)cc3)nc(CC(C)C)c(C(N)=O)c2-c2ccc(C(=O)NCc3ccc(F)c(F)c3)s2)n1 [Compound 102, N-(3,4-difluorophenyl)methyl-5-{5-carbamoyl-2-[2-(p-fluorophenyl)ethyl]-6-isobutyl-3-(3-methyl-1,2,4-oxadiazol-5-yl)-4-pyridyl}-2-thenamide] | 85.9 |
| CC(C)Cc1nc(CCc2ccc(F)cc2)c(-c2nc(C(C)C)no2)c(-c2ccc(C(=O)NCc3ccc(F)c(F)c3)s2)c1C(N)=O [Compound 103, N-(3,4-difluorophenyl)methyl-5-{5-carbamoyl-2-[2-(p-fluorophenyl)ethyl]-6-isobutyl-3-(3-isopropyl-1,2,4-oxadiazol-5-yl)-4-pyridyl}-2-thenamide] | 314 |
| Cc1noc(-c2c(CCc3ccc(F)cc3)nc(CC(C)C)c(C(N)=O)c2-c2ccc(-c3cn(Cc4ccc(F)c(F)c4)nn3)s2)n1 [Compound 104, 4-(5-{1-[(3,4-difluorophenyl)methyl]-1H-1,2,3-triazol-4-yl}-2-thienyl)-6-[2-(p-fluorophenyl)ethyl]-2-isobutyl-5-(3-methyl-1,2,4-oxadiazol-5-yl)nicotinamide] | 444 |
| CC(C)Cc1nc(CCc2ccc(F)cc2)c(-c2nc(C(F)(F)F)no2)c(-c2ccc(C(=O)NCc3ccc(F)c(F)c3)s2)c1C(N)=O [Compound 105, N-(3,4-difluorophenyl)methyl-5-{5-carbamoyl-2-[2-(p-fluorophenyl)ethyl]-6-isobutyl-3-[3-(trifluoromethyl)-1,2,4-oxadiazol-5-yl]-4-pyridyl}-2-thenamide] | 591 |
| Cc1nnc(-c2c(CCCC(C)C)nc(CC(C)C)c(C(N)=O)c2-c2ccc(C(=O)NCc3ccc(F)c(F)c3)s2)o1 [Compound 108, 4-(5-((3,4-difluorobenzyl)carbamoyl)thiophen-2-yl)-2-isobutyl-5-(5-methyl-1,3,4-oxadiazol-2-yl)-6-(4-methylpentyl)nicotinamide] | 70.7 |
| Cc1nnc(-c2c(CCC3CCCCC3)nc(CC(C)C)c(C(N)=O)c2-c2ccc(C(=O)NCc3ccc(F)c(F)c3)s2)o1 [Compound 109, 6-(2-cyclohexylethyl)-4-(5-((3,4-difluorobenzyl)carbamoyl)thiophen-2-yl)-2-isobutyl-5-(5-methyl-1,3,4-oxadiazol-2-yl)nicotinamide] | 20 |
| Cc1nnc(-c2c(Cc3ccc(F)cc3)nc(CC(C)C)c(C(N)=O)c2-c2ccc(C(=O)NCc3ccc(F)c(F)c3)s2)o1 [Compound 110, 4-(5-((3,4-difluorobenzyl)carbamoyl)thiophen-2-yl)-6-(4-fluorobenzyl)-2-isobutyl-5-(5-methyl-1,3,4-oxadiazol-2-yl)nicotinamide] | 74.1 |
| Cc1nnc(-c2c(CC(C)C)nc(CC(C)C)c(C(N)=O)c2-c2ccc(C(=O)NCc3ccc(F)c(F)c3)s2)o1 [Compound 111, 4-(5-((3,4-difluorobenzyl)carbamoyl)thiophen-2-yl)-2,6-diisobutyl-5-(5-methyl-1,3,4-oxadiazol-2-yl)nicotinamide] | 650 |
| CCc1nc(CC(C)C)c(C(N)=O)c(-c2ccc(C(=O)NCc3ccc(F)c(F)c3)s2)c1-c1nnc(C)o1 [Compound 112, 4-[5-[(3,4-difluorophenyl)methylcarbamoyl]-2-thienyl]-6-ethyl-2-isobutyl-5-(5-methyl-1,3,4-oxadiazol-2-yl)pyridine-3-carboxamide] | > 11400 |
| COc1cccc(CNC(=O)c2ccc(-c3c(C(N)=O)c(CC(C)C)nc(CCc4ccc(F)cc4)c3-c3nnc(C)o3)s2)c1 [Compound 113, N-(m-methoxyphenyl)methyl-5-{5-carbamoyl-2-[2-(p-fluorophenyl)ethyl]-6-isobutyl-3-(5-methyl-1,3,4-oxadiazol-2-yl)-4-pyridyl}-2-thenamide] | 6.2 |
| COc1ccc(CNC(=O)c2ccc(-c3c(C(N)=O)c(CC(C)C)nc(CCc4ccc(F)cc4)c3-c3nnc(C)o3)s2)cc1 [Compound 114, N-(p-methoxyphenyl)methyl-5-{5-carbamoyl-2-[2-(p-fluorophenyl)ethyl]-6-isobutyl-3-(5-methyl-1,3,4-oxadiazol-2-yl)-4-pyridyl}-2-thenamide] | 323 |
| Cc1nnc(-c2c(CCc3ccc(F)cc3)nc(CC(C)C)c(C(N)=O)c2-c2ccc(C(=O)NCc3ccccc3)s2)o1 [Compound 115, N-benzyl-5-{5-carbamoyl-2-[2-(p-fluorophenyl)ethyl]-6-isobutyl-3-(5-methyl-1,3,4-oxadiazol-2-yl)-4-pyridyl}-2-thenamide] | 85 |
| COc1cc(F)cc(CNC(=O)c2ccc(-c3c(C(N)=O)c(CC(C)C)nc(CCc4ccc(F)cc4)c3-c3nnc(C)o3)s2)c1 [Compound 116, N-[(3-fluoro-5-methoxyphenyl)methyl]-5-{5-carbamoyl-2-[2-(p-fluorophenyl)ethyl]-6-isobutyl-3-(5-methyl-1,3,4-oxadiazol-2-yl)-4-pyridyl}-2-thenamide] | 13.9 |
| COc1cc(CNC(=O)c2ccc(-c3c(C(N)=O)c(CC(C)C)nc(CCc4ccc(F)cc4)c3-c3nnc(C)o3)s2)ccc1F [Compound 117, N-[(4-fluoro-3-methoxyphenyl)methyl]-5-{5-carbamoyl-2-[2-(p-fluorophenyl)ethyl]-6-isobutyl-3-(5-methyl-1,3,4-oxadiazol-2-yl)-4-pyridyl}-2-thenamide] | 40.2 |
| Cc1nnc(-c2c(CCc3ccc(F)cc3)nc(CC(C)C)c(C(N)=O)c2-c2ccc(C(=O)N[C@H]3CCc4ccccc43)s2)o1 [Compound 118, (S)-4-(5-((2,3-dihydro-1H-inden-1-yl)carbamoyl)thiophen-2-yl)-6-(4-fluorophenethyl)-2-isobutyl-5-(5-methyl-1,3,4-oxadiazol-2-yl)nicotinamide] | 211 |
| Cc1nnc(-c2c(CCc3ccc(F)cc3)nc(CC(C)C)c(C(N)=O)c2-c2ccc(C(=O)N[C@@H]3CCc4c(F)cccc43)s2)o1 [Compound 119, (R)-4-(5-((4-fluoro-2,3-dihydro-1H-inden-1-yl)carbamoyl)thiophen-2-yl)-6-(4-fluorophenethyl)-2-isobutyl-5-(5-methyl-1,3,4-oxadiazol-2-yl)nicotinamide] | 2.7 |
| Cc1nnc(-c2c(CCc3ccc(F)cc3)nc(CC(C)C)c(C(N)=O)c2-c2ccc(C(=O)N[C@@H]3CCc4cc(F)ccc43)s2)o1 [Compound 120, (R)-4-(5-((5-fluoro-2,3-dihydro-1H-inden-1-yl)carbamoyl)thiophen-2-yl)-6-(4-fluorophenethyl)-2-isobutyl-5-(5-methyl-1,3,4-oxadiazol-2-yl)nicotinamide] | 1.7 |
| Cc1nnc(-c2c(CCc3ccc(F)cc3)nc(CC(C)C)c(C(N)=O)c2-c2ccc(C(=O)N[C@@H]3CCc4ccc(F)cc43)s2)o1 [Compound 121, (R)-4-(5-((6-fluoro-2,3-dihydro-1H-inden-1-yl)carbamoyl)thiophen-2-yl)-6-(4-fluorophenethyl)-2-isobutyl-5-(5-methyl-1,3,4-oxadiazol-2-yl)nicotinamide] | 1 |
| Cc1nnc(-c2c(CCc3ccc(F)cc3)nc(CC(C)C)c(C(N)=O)c2-c2ccc(C(=O)N[C@@H]3CCc4ncccc43)s2)o1 [Compound 123, (R)-4-(5-((6,7-dihydro-5H-cyclopenta[b]pyridin-5-yl)carbamoyl)thiophen-2-yl)-6-(4-fluorophenethyl)-2-isobutyl-5-(5-methyl-1,3,4-oxadiazol-2-yl)nicotinamide] | 37.2 |
| Cc1nnc(-c2c(CCc3ccc(F)cc3)nc(CC(C)C)c(C(N)=O)c2-c2ccc(C(=O)N[C@H]3CCc4ncccc43)s2)o1 [Compound 124, (S)-4-(5-((6,7-dihydro-5H-cyclopenta[b]pyridin-5-yl)carbamoyl)thiophen-2-yl)-6-(4-fluorophenethyl)-2-isobutyl-5-(5-methyl-1,3,4-oxadiazol-2-yl)nicotinamide] | 35.8 |
| Cc1nnc(-c2c(CCc3ccc(F)cc3)nc(CC(C)C)c(C(N)=O)c2-c2ncc(C(=O)NCc3ccc(F)c(F)c3)s2)o1 [Compound 125, N-(3,4-difluorophenyl)methyl-2-{5-carbamoyl-2-[2-(p-fluorophenyl)ethyl]-6-isobutyl-3-(5-methyl-1,3,4-oxadiazol-2-yl)-4-pyridyl}-1,3-thiazole-5-carboxamide] | 212 |
| Cc1nnc(-c2c(CCc3ccc(F)cc3)nc(CC(C)C)c(C(N)=O)c2-c2ccc(C(=O)NCc3ccc(F)c(F)c3)cc2)o1 [Compound 126, 4-(p-{[(3,4-difluorophenyl)methyl]carbamoyl}phenyl)-6-[2-(p-fluorophenyl)ethyl]-2-isobutyl-5-(5-methyl-1,3,4-oxadiazol-2-yl)nicotinamide] | 162 |
